Source: patent publication US6395708B1, “Method for preventing diarrhea” (Novartis, A.G., priority 1999, dated 2002)

What was measured:
[1] = Octreotide prophylaxis of irinotecan-induced diarrhea in patients receiving irinotecan; format: in vivo; conditions: octreotide prophylactic treatment before or concurrent with irinotecan; octreotide acetate long-acting release formulation 10, 20 or 30 mg
Procedure: In the prophylaxis of diarrhea according to the invention, octreotide may be administered simultaneously with irinotecan, or the compounds may be administered sequentially, in any desired order. Preferably octreotide is administered some days before the first irinotecan administration and subsequent octreotide administrations are before or simultaneous with irinotecan administration, the time of administration (dosing intervals) of octreotide depending on the preferred irinotecan-scheduled regimen. In a preferred embodiment of the present invention, octreotide acetate long-acting release formulation is administered 10-14 days prior to the first irinotecan dose. For example, when irinotecan is administered in a planned 6-week cycle, wherein irinotecan is given intravenously as a single-agent or in combination with other antineoplastic agents such as, e.g., cisplatin, 5-fluoruracil or others, over 30-90 minutes once weekly for 4 weeks followed by a 2-week rest period, octreotide acetate long-acting release formulation may be administered prior to the first irinotecan dose and again on Day 15 or Day 22 of this 6-week cycle. The octreotide acetate long-acting release formulation dosage is 10 mg, 20 mg or 30 mg at the time of each octreotide administration. […]

[2] = prophylaxis against chemotherapy-induced diarrhea; cited from earlier work
[3] = patients who experienced this side-effect during a previous course of chemotherapy; cited from earlier work
[4] = cited from earlier work
[5] = intensive, immediate application once diarrhea has started; cited from earlier work

| SMILES | severity and duration of diarrhea [1] | prevention of diarrhea associated with 5-fluorouracil plus leucovorin [2] | prevention of diarrhea associated with cisplatin [3] | treatment of 5-fluorouracil-induced diarrhea ([4]; Meropol et al. 1998) | efficacy in therapy of 5-fluorouracil-induced diarrhea, compared with loperamide ([4]; randomized trial comparing octreotide with loperamide) | frequency of diarrhea [5] | severity of diarrhea [5] |
| --- | --- | --- | --- | --- | --- | --- | --- |
| C[C@@H](O)[C@@H]1NC(=O)[C@H](CCCCN)NC(=O)[C@@H](Cc2c[nH]c3ccccc23)NC(=O)[C@H](Cc2ccccc2)NC(=O)[C@@H](NC(=O)[C@H](N)Cc2ccccc2)CSSC[C@@H](C(=O)N[C@H](CO)[C@@H](C)O)NC1=O (relative stereo) [octreotide, L-cysteinamide,D-phenylalanyl-L-cysteinyl-L-phenylalanyl-D-tryptophyl-L-lysyl-L-threonyl-N-[2-hydro-1-hydroxymethyl) propyl]-, cyclic (2→7)-disulfide; [R-(R*,R*)]] | avoids or remarkably limits the severity and duration of diarrhea in many cases | does not prevent diarrhea | active in preventing diarrhea | successful in the treatment of 5-fluorouracil-induced diarrhea | more effective than loperamide | – | – |
| CN(C)C(=O)C(CCN1CCC(O)(c2ccc(Cl)cc2)CC1)(c1ccccc1)c1ccccc1 [loperamide] | – | – | – | – | – | had not reduced the frequency of diarrhea | often successful in reducing the severity of diarrhea |
